Test results reported in the NIST ThermoML archive (doi:10.1021/je800664z).

Experiment: refractive index (Na D-line) (dimensionless); xn = mol fraction of the nth substance listed
Settings: 101 kPa, Liquid, Standard Abbe refractometry

C1COCO1 [1,3-dioxolane] + CC(C)CC(C)(C)C
refractive index
Settings	288.15 K	298.15 K	308.15 K
x1 = 0.0501	1.39395	1.38898	1.38381
x1 = 0.1	1.39385	1.38885	1.38367
x1 = 0.15	1.39377	1.38876	1.38361
x1 = 0.2	1.39374	1.38876	1.3836
x1 = 0.25	1.39378	1.38883	1.3837
x1 = 0.3	1.39389	1.38897	1.38387
x1 = 0.35	1.39411	1.3892	1.3841
x1 = 0.4	1.3944	1.38948	1.3844
x1 = 0.45	1.39473	1.38982	1.38476
x1 = 0.5	1.39512	1.39022	1.38517
x1 = 0.55	1.39558	1.39068	1.38563
x1 = 0.6	1.3961	1.3912	1.38614
x1 = 0.65	1.39668	1.39178	1.38672
x1 = 0.7	1.39734	1.39243	1.38739
x1 = 0.75	1.39807	1.39318	1.38814
x1 = 0.8	1.39883	1.39399	1.38895
x1 = 0.85	1.39966	1.39487	1.38987
x1 = 0.9	1.40055	1.39581	1.3909
x1 = 0.95	1.40152	1.39683	1.39199
x1 = 1	1.40252	1.39795	1.39322

C1COCO1 [1,3-dioxolane] + CC(C)O
refractive index
Settings	288.15 K	298.15 K	308.15 K
x1 = 0.05	1.38037	1.37601	1.37126
x1 = 0.1	1.38139	1.37686	1.37207
x1 = 0.15	1.38242	1.37776	1.37295
x1 = 0.2	1.38343	1.37869	1.37388
x1 = 0.25	1.38447	1.37966	1.37483
x1 = 0.3001	1.3855	1.38065	1.37579
x1 = 0.35	1.38655	1.38168	1.3768
x1 = 0.4	1.38763	1.38274	1.37785
x1 = 0.45	1.38875	1.38384	1.37894
x1 = 0.5	1.3899	1.38496	1.38006
x1 = 0.55	1.39107	1.38611	1.38121
x1 = 0.6	1.39227	1.38729	1.38238
x1 = 0.65	1.39348	1.3885	1.38359
x1 = 0.7001	1.39473	1.38975	1.38483
x1 = 0.75	1.396	1.39103	1.38608
x1 = 0.8	1.39731	1.39234	1.38737
x1 = 0.85	1.39862	1.39368	1.38872
x1 = 0.9	1.39993	1.39509	1.39013
x1 = 0.95	1.40123	1.39653	1.39165
x1 = 1	1.40252	1.39795	1.39322
